The results in this text go back to patent US8173654B2, “Triazolopyridazine compounds” (Janssen Pharmaceutica N.V., priority 2005, dated 2012).

In one assay the test system is S114 tumors. Put plainly: S114 tumor model. The class given is in vivo, athymic nude mice. Conditions: 100 mg/kg p.o. q.d., four consecutive days, five mice. Here is the method: Female athymic nude mice were inoculated subcutaneously in the left inguinal region of the thigh with 5×10^6 S114 cells in a delivery volume of 0.1 mL. Tumors were allowed to grow to for five days. Mice were dosed orally at 100 mg/kg compound in 20% HPBCD or with vehicle (20% HPBCD, control group). Dosing was continued for 4 consecutive days. On the day of study termination, tumors were immediately excised intact and weighed, with final tumor wet weight (grams) serving as a primary efficacy endpoint.
Female athymic nude mice (CD-1, nu/nu, 9-10 weeks old) were obtained from Charles River Laboratories (Wilmington, Mass.) and were maintained according to NIH standards. All mice were group housed (5 mice/cage) under clean-room conditions in sterile micro-isolator cages on a 12-hour light/dark cycle in a room maintained at 21-22° C. and 40-50% humidity. […]
The murine NIH 3T3 derived cell line S114, which has been engineered to over-express both Human Growth Factor (HGF) and the human c-Met receptor, was propagated in DMEM media (Life Technologies, Bethesda, Md.). Immediately prior to injection, cells were washed counted and resuspended in PBS. […]
Mice were dosed orally at 100 mg/kg compound in 20% HPBCD or with vehicle (20% HPBCD, control group). […] Body weight was measured at the end of the study and a loss of body weight >10% was used as an indication of lack of compound tolerability. […]

For assay [1], the target named is T1, c-Met (Homo sapiens, UniProt P08581). The assay can be described thus: Cell based ELISA assay for HGF stimulated c-Met phosphorylation in S114 cells. More on the design: expressed in transfected cells; host or cells: S114 (murine NIH 3T3 derived). Conditions: read-out: c-Met Cell ELISA IC-50.
Target sequence in this assay (P08581 25-1390): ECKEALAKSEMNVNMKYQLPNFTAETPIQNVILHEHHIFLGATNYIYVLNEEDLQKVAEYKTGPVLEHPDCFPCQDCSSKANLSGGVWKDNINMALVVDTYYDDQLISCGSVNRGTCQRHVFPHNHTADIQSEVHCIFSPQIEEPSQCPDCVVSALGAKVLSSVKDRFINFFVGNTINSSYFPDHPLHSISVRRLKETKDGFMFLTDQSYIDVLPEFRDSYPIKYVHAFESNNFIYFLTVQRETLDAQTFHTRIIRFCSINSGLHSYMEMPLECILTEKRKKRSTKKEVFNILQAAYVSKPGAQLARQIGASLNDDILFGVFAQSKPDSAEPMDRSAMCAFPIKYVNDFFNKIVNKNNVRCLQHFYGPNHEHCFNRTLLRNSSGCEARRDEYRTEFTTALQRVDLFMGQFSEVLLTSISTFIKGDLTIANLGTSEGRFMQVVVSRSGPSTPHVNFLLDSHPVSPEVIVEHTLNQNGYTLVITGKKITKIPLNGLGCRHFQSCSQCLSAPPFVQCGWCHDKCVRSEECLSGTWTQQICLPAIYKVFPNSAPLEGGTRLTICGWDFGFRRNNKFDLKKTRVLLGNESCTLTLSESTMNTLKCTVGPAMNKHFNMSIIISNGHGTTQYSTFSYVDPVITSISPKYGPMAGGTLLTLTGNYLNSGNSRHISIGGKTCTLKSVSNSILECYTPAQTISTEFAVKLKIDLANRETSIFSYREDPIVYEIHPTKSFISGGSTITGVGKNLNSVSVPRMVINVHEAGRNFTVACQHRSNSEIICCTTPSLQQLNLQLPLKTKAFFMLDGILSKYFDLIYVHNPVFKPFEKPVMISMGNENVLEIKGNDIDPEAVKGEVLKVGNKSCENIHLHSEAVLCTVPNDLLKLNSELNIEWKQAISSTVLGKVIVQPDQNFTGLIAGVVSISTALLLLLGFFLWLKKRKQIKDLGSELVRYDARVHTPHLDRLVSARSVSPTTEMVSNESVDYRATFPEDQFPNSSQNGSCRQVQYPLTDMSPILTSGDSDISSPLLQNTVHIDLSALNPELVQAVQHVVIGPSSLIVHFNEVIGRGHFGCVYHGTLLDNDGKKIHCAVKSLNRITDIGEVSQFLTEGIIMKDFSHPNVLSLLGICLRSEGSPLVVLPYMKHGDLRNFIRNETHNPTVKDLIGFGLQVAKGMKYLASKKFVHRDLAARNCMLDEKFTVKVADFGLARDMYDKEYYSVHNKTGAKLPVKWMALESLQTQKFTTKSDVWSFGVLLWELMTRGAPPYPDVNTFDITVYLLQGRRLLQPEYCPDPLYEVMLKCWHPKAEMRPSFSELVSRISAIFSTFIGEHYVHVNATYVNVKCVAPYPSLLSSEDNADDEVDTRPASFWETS
In assay [2] the target is T1, c-Met. The assay can be described thus: Delfia autophosphorylation kinase assay on the c-Met. Format: biochemical. The arrangement: The purified His6 tagged cytoplasmic domain of c-Met was diluted to a concentration of 500 ng/ml; host or cells: Sf9 insect cells (baculovirus, pFastBacHTa). The settings on record: His6 tagged cytoplasmic domain of c-Met, 1 μM ATP; read-out: cMet Delfia autophos IC-50. The method in brief: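 Time-resolved fluorescence tracked autophosphorylation of the His6-tagged c-Met cytoplasmic domain, dispensed at 500 ng/ml onto nickel-chelate plates. Reaction buffer held 1 μM ATP, 10 mM MgCl2, vanadate and DTT at pH 8.0, for 1 h at room temperature.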
Target sequence in this assay (P08581 956-1390 limits assumed): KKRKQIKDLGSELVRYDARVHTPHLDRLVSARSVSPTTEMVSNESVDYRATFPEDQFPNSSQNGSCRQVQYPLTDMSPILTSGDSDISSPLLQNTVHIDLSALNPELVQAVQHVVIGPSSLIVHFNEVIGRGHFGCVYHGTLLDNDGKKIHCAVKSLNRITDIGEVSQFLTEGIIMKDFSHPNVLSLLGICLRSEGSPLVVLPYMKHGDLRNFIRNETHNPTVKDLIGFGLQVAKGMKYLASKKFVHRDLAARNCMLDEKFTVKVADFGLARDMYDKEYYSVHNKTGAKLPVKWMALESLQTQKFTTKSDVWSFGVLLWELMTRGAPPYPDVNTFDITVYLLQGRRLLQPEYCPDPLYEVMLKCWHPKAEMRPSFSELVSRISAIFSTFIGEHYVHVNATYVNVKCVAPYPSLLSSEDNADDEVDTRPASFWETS

SMILES strings stand for the structures.

Turning to `Cn1cc(-c2ccc3nnc(C(F)(F)c4ccc5ncccc5c4)n3n2)cn1` [Example 61, 6-{Difluoro-[6-(1-methyl-1H-pyrazol-4-yl)-[1,2,4]triazolo[4,3-b]pyridazin-3-yl]-methyl}-quinoline], the “mice with tumors regressed to non-palpable, non-detectable tumors by the end of the study” value with S114 tumors is recorded as “three of the five mice”. Moreover, the “regression of S114 tumors” value with S114 tumors is given as “regressed in all five mice”. Moreover, the results for the IC50 on c-Met [1] and at c-Met [2] were 2 nM and 1 nM, respectively.
